Among the data in ChEMBL document CHEMBL1128865, “A systematic study of P1P3 spanning sidechains for the inhibition of HIV-1 protease” (Bioorg Med Chem Lett, 1995) are IC50 and EC50 values, retold here.

Assay [1] concerns the target Human immunodeficiency virus type 1 protease (Human immunodeficiency virus 1, UniProt Q72874). Nature of the assay: Inhibitory activity against HIV-1 protease.
Assay [2] has as its system CCRF-CEM. The assay can be described thus: Concentration required for inhibitory activity against CEM cells in a whole cell assay. The assay is classed as functional. Particulars: Homo sapiens, read-out: ED50 (the source's name).
Assay [3] has as its system CCRF-CEM. The assay can be described thus: Concentration required for inhibitory activity against CEM cells in a whole cell assay. The assay is classed as functional. Particulars: Homo sapiens, read-out: ED50 (the source's name).

As a reminder, the IC50 is the concentration that gives 50% inhibition. With `CC(C)(C)NC(=O)c1ccccc1C[C@@H](O)[C@H](CSc1ccccc1)NC(=O)[C@H](CC(N)=O)NC(=O)c1ccc2ccccc2n1`, the IC50 in assay [1] stood at 1.1 nM.

Take `CC(C)(C)NC(=O)[C@@H]1C[C@@H]2CCCC[C@@H]2CN1C[C@@H](O)[C@H](CSc1ccccc1)NC(=O)[C@H](CC(N)=O)NC(=O)c1ccc2ccccc2n1`: the EC50 in the assay with CCRF-CEM [2] turned out to be 1.3 nM. The IC50 in assay [1] is 1.5 nM.

Consider `CC(C)(C)NC(=O)[C@@H]1C[C@@H]2CCCC[C@@H]2CN1C[C@@H](O)[C@H](CSc1ccc2ccccc2c1)NC(=O)[C@H](CC(N)=O)NC(=O)c1ccc2ccccc2n1`, for which, in the assay on CCRF-CEM [2], the EC50 amounted to 1.4 nM. In addition, the IC50 in assay [1] is < 0.25 nM.

On to `CC(C)(C)NC(=O)c1ccccc1C[C@@H](O)[C@H](CSc1ccc2ccccc2c1)NC(=O)CCC(N)=O`, for which, in assay [1], the concentration for half-maximal inhibition (IC50) was > 80 nM.

Consider `CC(C)(C)NC(=O)c1ccccc1C[C@@H](O)[C@H](CSc1ccc2ccccc2c1)NC(=O)[C@H](CC(N)=O)NC(=O)c1ccc2ccccc2n1`, for which the IC50 in assay [1] was < 0.25 nM.

Turning to `CC(C)(C)NC(=O)c1ccccc1C[C@@H](O)[C@H](CSc1ccccc1)NC(=O)CCC(N)=O`, the IC50 in assay [1] was > 150 nM.

Consider `CC(C)(C)NC(=O)[C@@H]1C[C@@H]2CCCC[C@@H]2CN1C[C@@H](O)[C@H](Cc1ccccc1)NC(=O)[C@H](CC(N)=O)NC(=O)c1ccc2ccccc2n1`, for which the EC50 with CCRF-CEM [2] was 1.5 nM.

As for `CC(C)(C)NC(=O)c1ccccc1C[C@@H](O)[C@H](CSc1ccc2ccccc2c1)NC(=O)[C@H](CC(N)=O)NC(=O)OCc1ccccc1`, the midpoint of inhibition in assay [1], the IC50, lay at 1.5 nM.

Regarding `CC(=O)N[C@@H](CC(N)=O)C(=O)N[C@@H](CSc1ccc2ccccc2c1)[C@H](O)Cc1ccccc1C(=O)NC(C)(C)C`, the IC50 in assay [1] amounted to 1.1 nM.

Regarding `CC(C)(C)NC(=O)c1ccccc1C[C@@H](O)[C@H](CSc1ccccc1)NC(=O)[C@H](CC(N)=O)NC(=O)OCc1ccccc1`, in assay [1], the IC50 stood at 14 nM.

For `CC(=O)N[C@@H](CC(N)=O)C(=O)N[C@@H](CSc1ccccc1)[C@H](O)Cc1ccccc1C(=O)NC(C)(C)C`, the IC50 in assay [1] was 19 nM.

Consider `CC(C)(C)NC(=O)c1ccccc1C[C@@H](O)[C@H](Cc1ccccc1)NC(=O)[C@H](CC(N)=O)NC(=O)c1ccc2ccccc2n1`, for which the EC50 in the assay with CCRF-CEM [3] was found to be 23 nM.
